Peptide text beside a SMILES is read from it. * marks the point of attachment. DOTA = O=C(O)CN1CCN(CC(=O)O)CCN(CC(=O)*)CCN(CC(=O)O)CC1
Target: T1, CXCR4 (Homo sapiens, UniProt P61073)
T1 construct: Jurkat cells, which are naturally expressing high levels of CXCR4; host or cells: Jurkat, clone E6-1
Assay: Antibody-competition assay (anti-CXCR4 clone 12G5) on Ghost-CXCR4 cells
Assay type: binding
Conditions: competition with CXCR4 antibody clone 12G5, Ghost-CXCR4 cells, 4 °C, 2 h; mean ± SEM
Method: Binding of the DOTA-conjugated EPI-X4 derivatives to CXCR4 was assessed by an antibody-competition assay[26] using Ghost cells stably transfected with CXCR4, as well as on Jurkat cells, which are naturally expressing high levels of CXCR4. […] The buffer was removed and plates were precooled at 4 °C. Ligands were serially diluted in PBS. The antibody (clone 12G5, Allophycocyanin labeled, BD Pharmingen #555976) was diluted in PBS containing 1% FBS. The antibody was used at a fixed concentration close to its KD. 15 μL of compound and immediately afterward 15 μL of the antibody were added to the cells. Plates were incubated at 4 °C in the dark for 2 h allowing to establish an equilibrium binding. Cells were then washed twice with PBS containing 1% FBS and fixed with 2% paraformaldehyde. Antibody binding was analyzed by flow cytometry (FACS CytoFLEX; Beckman Coulter).

T1 sequence (P61073 whole entry): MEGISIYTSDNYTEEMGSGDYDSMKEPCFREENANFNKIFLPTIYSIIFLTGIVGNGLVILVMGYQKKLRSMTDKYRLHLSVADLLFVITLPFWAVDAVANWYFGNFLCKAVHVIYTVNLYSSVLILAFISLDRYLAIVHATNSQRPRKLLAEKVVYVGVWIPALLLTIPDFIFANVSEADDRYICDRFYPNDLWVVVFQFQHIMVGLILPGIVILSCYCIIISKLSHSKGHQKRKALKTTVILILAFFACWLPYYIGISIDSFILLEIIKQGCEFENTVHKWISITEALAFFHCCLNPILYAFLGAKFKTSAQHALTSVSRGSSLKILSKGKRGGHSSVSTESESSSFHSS

CC[C@H](C)[C@H](N)C(=O)N[C@@H](CC(C)C)C(=O)N[C@@H](CCCNC(=N)N)C(=O)N[C@@H](Cc1c[nH]c2ccccc12)C(=O)N[C@@H](CO)C(=O)N[C@@H](CCCNC(=N)N)C(=O)N[C@@H](CCCCN)C(=O)N[C@@H](CC(C)C)C(=O)N1CCC[C@H]1C(=O)N[C@@H](CO)C(=O)N[C@H](C(=O)N[C@@H](CO)C(=O)N[C@@H](CCCCNC(=O)CN1CCN(CC(=O)O)CCN(CC(=O)O)CCN(CC(=O)O)CC1)C(=O)O)C(C)C [^natLu-2, metal not drawn] (H-ILRWSRKLPSVSK(DOTA)-OH; N-terminus and C-terminus assumed)
IC50: 122 ± 45 nM

From paper PMC10350915, “Development of a New Class of CXCR4-Targeting Radioligands Based on the Endogenous Antagonist EPI-X4 for Oncological Applications” (Journal of Medicinal Chemistry, 2023)
